Source: patent US6713491B2, “Heterocyclic derivatives” (priority 1999, dated 2004)

How the values were obtained:
[1] = system: kainic acid (kainate) receptor; assay: selectivity study at other ionotropic excitatory amino acid receptors: kainate; format: binding
Description: (§1) The potent and selective action of the compound of the invention at the strychnine-insensitive glycine binding site present on the NMDA receptor complex may be readily determined using conventional test procedures. Thus the ability to bind at the strychnine insensitive glycine binding site was determined using the procedure of Kishimoto H et al., J Neurochem 1981, 37, 1015-1024. The selectivity of the action of compounds of the invention for the strychnine insensitive glycine site was confirmed in studies at other ionotropic known excitatory amino acid receptors.

[2] = system: mice; assay: tolerability on administration to mice; format: in vivo; conditions: pharmacological active doses
[3] = target: T1, strychnine insensitive glycine binding site associated with the NMDA receptor complex (Rattus norvegicus, UniProt P35439); assay: binding at the strychnine insensitive glycine binding site (procedure of Kishimoto H et al.)
T1 construct: from tissue; host or cells: rat CNS membranes (inferred from the cited procedure)
Description: as §1

[4] = system: a-amino-3-hydroxy-5-methyl-4-isoxazole-proprionic acid (AMPA) receptor; assay: selectivity study at other ionotropic excitatory amino acid receptors: AMPA; format: binding
Description: as §1

[5] = system: NMDA binding site; assay: selectivity study at other ionotropic excitatory amino acid receptors: NMDA binding site
Description: as §1

With `CNC[C@H](O)[C@@H](O)[C@H](O)[C@H](O)CO.O=C(O)C1CC(=C2CCN(c3ccccc3)C2=O)c2ccc(Cl)cc2N1` (single isomer, unassigned; enantiomer a) [compound of the invention, meglumine salt of enantiomer A of 7-chloro-4-(2-oxo-1-phenyl-3-pyrrolidinylidene)-1,2,3,4-tetrahydro-2-quinolinecarboxylic acid] the “affinity for the kainic acid (kainate) receptor” value [1] was “little or no affinity”, the untoward effects [2] was “No untoward effects” and the “antagonism at the strychnine insensitive glycine binding site” value [3] was “potent antagonist”. For the same compound, the “affinity for the AMPA receptor” value [4] was “little or no affinity” and the “affinity at the NMDA binding site” value [5] was “little or no affinity”.
